Experiment [1] addresses T1, recombinant human Aggrecanase-2 Agg2-Phe628 (Homo sapiens, UniProt Q9UNA0).
T1 sequence (Q9UNA0 262-628 limits assumed): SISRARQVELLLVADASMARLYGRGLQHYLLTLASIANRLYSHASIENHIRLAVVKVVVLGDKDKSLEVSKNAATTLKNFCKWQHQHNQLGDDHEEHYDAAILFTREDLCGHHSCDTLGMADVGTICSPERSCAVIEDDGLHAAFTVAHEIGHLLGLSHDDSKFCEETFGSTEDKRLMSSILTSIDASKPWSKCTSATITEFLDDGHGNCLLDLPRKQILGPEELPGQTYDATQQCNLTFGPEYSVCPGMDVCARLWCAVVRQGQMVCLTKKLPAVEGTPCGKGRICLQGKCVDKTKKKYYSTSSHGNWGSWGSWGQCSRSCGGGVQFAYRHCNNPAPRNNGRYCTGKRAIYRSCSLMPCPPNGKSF
Put plainly: Aggrecanase 2 in vitro enzyme assay (Agg-2 FRET, quenched fluorescent peptide substrate). On the set-up: purified recombinant human Aggrecanase-2 Agg2-Phe628 (MW=41,737); This is a truncated form of full-length human aggrecanase-2; made in house; host or cells: CHO cells. As to conditions: established value of positive control; read-out: IC50 for rAgg-2. It counts as biochemical. The essentials: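 Continuous FRET assay with purified truncated human Aggrecanase-2 Agg2-Phe628 (CHO-expressed, 0.5 μg/ml final) and brevican-derived Abz/Dnp peptide (25 μM final) in 50 mM HEPES pH 7.5, 100 mM NaCl, 5 mM CaCl2, 0.1% CHAPS, 5% glycerol. Enzyme preincubated with compound before substrate; fluorescence (ex 340/em 420 nm) followed kinetically 40 min at 30 °C.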

In experiment [2] the target is T1, recombinant human Aggrecanase-2 Agg2-Phe628. The experiment in a line: Aggrecanase 2 enzyme fluorescence polarization assay. The class given is binding. Also on record: recombinant human Aggrecanase-2, Agg2-Phe628 (41737 Da); This is a truncated form of full-length human aggrecanase-2; made in house. The text has this:
The fluorescence polarization assay is used to determine the dissociation constant of the enzyme:inhibitor complex (Ki) and the binding interaction mode (competitive, non-competitive or uncompetitive) of reversible inhibitors. The fluorescence polarization assay monitors the rotational motion of the fluorescent ligand. In the free state the fluorescent ligand has high rotational motion corresponding to a low polarization value and when fully bound to the protein, the fluorescent ligand has a lower rotational motion, corresponding to a higher polarization value. […]
Stock solutions of the fluorescent ligand are prepared in 100% DMSO and aliquots are stored at −80° C. The stock concentration was determined by a NMR ratio method, comparing the area under the control compound peak (TSP; trimethyl silyl proprionate sodium salt) to the area under a well-defined sample peak.
To determine the dissociation constant between Aggrecanase-2 and Compound C, saturation experiments were performed by adding various concentrations of aggrecanase to a constant concentration of Compound C (2 nM), in the assay buffer 50 mM HEPES-NaOH (pH 7.4), 100 mM NaCl, 5 mM CaCl2, 0.005% Brij-35. Anisotropy values were calculated and converted to fraction bound values as described in the data analysis section below. […] The equilibrium dissociation constant was determined to be 60+/−2.9 nM. […]
(In general: Polarisation of emitted light reports the rotation of a fluorescent probe.)

For `CN([C@H](CCCCNC(=O)OC(C)(C)C)C(=O)NO)S(=O)(=O)c1ccc(OCc2ccccc2)cc1` [Compound B, reference compound], the IC50 – broadly, the concentration at which inhibition is half-maximal – in experiment [1] came to 37 nM. Besides, the Ki – broadly, a measure of affinity in units of concentration, obtained from inhibition or displacement – in experiment [2] (established value of positive control, read-out: Ki for rAgg-2) was 39 nM.

In the case of `CN([C@H](CCCCCNC(=O)c1ccc(-c2c3cc(F)c(=O)cc-3oc3cc(O)c(F)cc23)c(C(=O)O)c1)C(=O)NO)S(=O)(=O)c1ccc(OCc2ccccc2)cc1` [Compound C], in experiment [2] (saturation experiment, 2 nM ligand, read-out: equilibrium dissociation constant between Aggrecanase-2 and fluorescent ligand), the Kd came out at 60 nM.

These data come from patent US20080269213A1, “8-Hydroxyquinoline compounds and methods thereof” (Wyeth, priority 2006, published 2008).
